# Values of other authors in patent US9895311B2, “Foam-forming compositions and methods for delivering an active to a body cavity” (Pharmiva AB, priority 2014, dated 2018).
# Columns and labels:
# [1] = test system: anaerobic bacteria involved in vaginal and urinary tube infections; settings: in 7 seconds, laboratory conditions (Block 1983)
# several species = settings: even at low pH (Attassi, Servin 2010)
compound,measurement,setting,value
OO [hydrogen peroxide],log reduction,[1],2 log
same,Concentration required for inhibition,several species,≥ 20 mM
